According to patent US10335462B2, “Use of long-acting GLP-1 peptides” (Novo Nordisk A/S, priority 2012, dated 2019):
Like-named read-outs stand apart in the source and are kept apart here.

Assays:
[1] = test system: human subjects with type 2 diabetes; conditions: in vivo
Excerpt: (§1) The placebo composition may be identical to the composition of the GLP-1 agonists, but not containing a GLP-1 agonist.
(§2) In a 12-week, randomised, double-blind, placebo-controlled trial, 411 human subjects (n=43-50 per group) with type 2 diabetes were exposed.

[2] = test system: human subjects with type 2 diabetes; assay: 12-week randomised, double-blind, placebo-controlled trial: safety and tolerability
Excerpt: as §1, §2

major hypoglycaemia [1] | reports of pancreatitis [1] | treatment-related changes in blood calcitonin [1] | SMILES | withdrawals due to gastrointestinal adverse events [1] | proportion of subjects with nausea and vomiting ([2]; 12 weeks) | reports of pancreatitis ([2]; 12 weeks) | safety concerns ([2]; 12 weeks) | treatment-related changes in blood calcitonin ([2]; 12 weeks) | major hypoglycaemia ([2]; all dose groups) | withdrawals due to gastrointestinal adverse events ([2]; range over the dose groups) | subjects developing low titre non-neutralising anti-semaglutide antibodies (no cross-reaction to native GLP-1) ([2]; semaglutide 1.6 mg T)
no major hypoglycaemia | no reports | no reports | CCCCCCCCCCCCCCCC(=O)N[C@@H](CCC(=O)NCCCC[C@H](NC(=O)[C@H](C)NC(=O)[C@H](C)NC(=O)[C@H](CCC(N)=O)NC(=O)CNC(=O)[C@H](CCC(=O)O)NC(=O)[C@H](CC(C)C)NC(=O)[C@H](Cc1ccc(O)cc1)NC(=O)[C@H](CO)NC(=O)[C@H](CO)NC(=O)[C@@H](NC(=O)[C@H](CC(=O)O)NC(=O)[C@H](CO)NC(=O)[C@@H](NC(=O)[C@H](Cc1ccccc1)NC(=O)[C@@H](NC(=O)CNC(=O)[C@H](CCC(=O)O)NC(=O)[C@H](C)NC(=O)[C@@H](N)Cc1cnc[nH]1)[C@@H](C)O)[C@@H](C)O)C(C)C)C(=O)N[C@@H](CCC(=O)O)C(=O)N[C@@H](Cc1ccccc1)C(=O)N[C@H](C(=O)N[C@@H](C)C(=O)N[C@@H](Cc1c[nH]c2ccccc12)C(=O)N[C@@H](CC(C)C)C(=O)N[C@H](C(=O)N[C@@H](CCCNC(=N)N)C(=O)NCC(=O)N[C@@H](CCCNC(=N)N)C(=O)NCC(=O)O)C(C)C)[C@@H](C)CC)C(=O)O [liraglutide] | 2.2%-10 | – | – | – | – | – | – | –
– | – | – | CC[C@H](C)[C@H](NC(=O)[C@H](Cc1ccccc1)NC(=O)[C@H](CCC(=O)O)NC(=O)[C@H](CCCCNC(=O)COCCOCCNC(=O)COCCOCCNC(=O)CC[C@H](NC(=O)CCCCCCCCCCCCCCCCC(=O)O)C(=O)O)NC(=O)[C@H](C)NC(=O)[C@H](C)NC(=O)[C@H](CCC(N)=O)NC(=O)CNC(=O)[C@H](CCC(=O)O)NC(=O)[C@H](CC(C)C)NC(=O)[C@H](Cc1ccc(O)cc1)NC(=O)[C@H](CO)NC(=O)[C@H](CO)NC(=O)[C@@H](NC(=O)[C@H](CC(=O)O)NC(=O)[C@H](CO)NC(=O)[C@@H](NC(=O)[C@H](Cc1ccccc1)NC(=O)[C@@H](NC(=O)CNC(=O)[C@H](CCC(=O)O)NC(=O)C(C)(C)NC(=O)[C@@H](N)Cc1cnc[nH]1)[C@@H](C)O)[C@@H](C)O)C(C)C)C(=O)N[C@@H](C)C(=O)N[C@@H](Cc1c[nH]c2ccccc12)C(=O)N[C@@H](CC(C)C)C(=O)N[C@H](C(=O)N[C@@H](CCCNC(=N)N)C(=O)NCC(=O)N[C@@H](CCCNC(=N)N)C(=O)NCC(=O)O)C(C)C [semaglutide] | – | increased with dose, but were generally mild or moderate and ameliorated by titration | no reports | No semaglutide safety concerns were identified | no reports | no major hypoglycaemia | 4.7%-27.7 | One subject
